Data published in patent US9102648B1, “Bioavailable diacylhydrazine ligands for modulating the expression of exogenous genes via an ecdysone receptor complex” (Intrexon Corporation, priority 2003, dated 2015).
Read-outs that look alike come from different tables or passages of the source.

What was measured:
[1] = target: T1, Bombyx mori EcR (VP16 fusion, CVBE switch construct) (Bombyx mori, UniProt P49881); test: Z3 Assay (HEK-293 cells with CVBE and 6XEcRE LacZ, β-galactosidase reporter); details: for fold induction at 3.3 µM: HEK293, read-out: Fold Induction, Z3 Assay, 3.3 uM; for Z3 assay Rel Max FI: maximum fold induction at any concentration relative to that of GS-E ligand; for Fold Induction, Z3 Assay, 3.3 uM: 3.3 uM ligand; for Fold Induction, Z3 Assay, 3.3 uM / Fold Induction, Z3 Assay, 33 uM: ligand treated / DMSO treated cells; for Fold Induction, Z3 Assay, 33 uM: 33 uM ligand
T1 sequence (P49881 86-606): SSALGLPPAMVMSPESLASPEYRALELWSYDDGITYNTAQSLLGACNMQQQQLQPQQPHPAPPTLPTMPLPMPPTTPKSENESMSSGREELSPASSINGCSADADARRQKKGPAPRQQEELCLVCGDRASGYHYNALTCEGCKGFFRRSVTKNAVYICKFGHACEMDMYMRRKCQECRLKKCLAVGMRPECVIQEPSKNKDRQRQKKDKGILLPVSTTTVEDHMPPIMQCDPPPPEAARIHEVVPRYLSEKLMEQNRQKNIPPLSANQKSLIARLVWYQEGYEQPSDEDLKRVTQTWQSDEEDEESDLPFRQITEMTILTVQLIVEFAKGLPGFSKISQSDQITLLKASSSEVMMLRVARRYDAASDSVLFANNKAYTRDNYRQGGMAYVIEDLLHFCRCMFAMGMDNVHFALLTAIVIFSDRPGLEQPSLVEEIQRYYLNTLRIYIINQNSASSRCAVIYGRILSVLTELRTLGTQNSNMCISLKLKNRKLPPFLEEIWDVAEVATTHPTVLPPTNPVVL
T1 sequence (P19793 1-462 partner): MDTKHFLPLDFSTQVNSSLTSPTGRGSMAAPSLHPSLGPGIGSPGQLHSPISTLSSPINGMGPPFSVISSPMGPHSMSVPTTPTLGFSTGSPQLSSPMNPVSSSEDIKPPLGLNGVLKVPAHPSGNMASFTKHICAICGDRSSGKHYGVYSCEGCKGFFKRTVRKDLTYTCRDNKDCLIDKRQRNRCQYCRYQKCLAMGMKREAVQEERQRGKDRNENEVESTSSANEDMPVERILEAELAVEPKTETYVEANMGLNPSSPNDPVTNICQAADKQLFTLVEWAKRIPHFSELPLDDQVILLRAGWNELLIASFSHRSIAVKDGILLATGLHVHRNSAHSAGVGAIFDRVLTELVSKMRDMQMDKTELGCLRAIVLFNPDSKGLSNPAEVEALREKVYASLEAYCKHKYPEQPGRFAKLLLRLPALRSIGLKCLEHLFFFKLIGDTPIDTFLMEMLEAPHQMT

[2] = target: GAL4 DBD-CfEcR(DEF)/VP16AD-MmRXRE (Choristoneura fumiferana, UniProt O77240); test: 13B3 Assay (CHO stable cell line, luciferase reporter); details: for 13B3 assay Rel Max FI: maximum fold induction at any concentration relative to that of GS-E ligand, CHO 13B3 cells; for fold induction at 3.3 µM: read-out: Fold Induction, 13B3 Assay, 3.3 uM; for Fold Induction, 13B3 Assay, 3.3 uM: 3.3 uM ligand; for Fold Induction, 13B3 Assay, 3.3 uM / Fold Induction, 13B3 Assay, 33 uM: RLU ligand treated / RLU DMSO treated cells; for Fold Induction, 13B3 Assay, 33 uM: 33 uM ligand
Description: GAL4 DBD-CfEcR(DEF)/VP16AD-MmRXRE:
The wild-type D, E, and F domains from spruce budworm Choristoneura fumiferana EcR (“CfEcR-DEF”; SEQ ID NO: 1) were fused to a GALA DNA binding domain (“Gal4DBD1-147”; SEQ ID NO: 2) and placed under the control of the SV40e promoter of pM vector (PT3119-5, Clontech, Palo Alto, Calif.). The D and E domains from Mus Musculus RXR (“MmRXR-DE”; SEQ ID NO: 11) were fused to the transactivation domain from VP16 (“VP16AD”; SEQ ID NO: 6) and placed under the control of the SV40e promoter of the pVP16 vector (PT3127-5, Clontech, Palo Alto, Calif.).
CHO cells were transiently transfected with transcription cassettes for GAL4 DBD-CJEcR(DEF) and for VP16AD-MmRXRE controlled by SV40e promoters. Stably transfected cells were selected using Hygromycin. Individually isolated CHO cell clones were transiently transfected with a GALA RE-luciferase reporter (pFR-Luc, Stratagene, La Jolla, Calif.). The 13B3 clone was selected using Zeocin.
Cells were trypsinized and diluted to a concentration of 2.5×10^4 cells mL. 100 μL of cell suspension was placed in each well of a 96 well plate and incubated at 37° C. under 5% CO2 for 24 h. Ligand stock solutions were prepared in DMSO and diluted 300 fold for all treatments. Dose response testing consisted of 8 concentrations ranging from 33 μM to 0.01 μM.
Luciferase reporter gene expression was measured 48 h after cell treatment using Bright-Glo™ Luciferase Assay System from Promega (E2650). Luminescence was detected at room temperature using a Dynex MLX microtiter plate luminometer.
Each assay was conducted in two separate wells, and the two values were averaged. Fold inductions were calculated by dividing relative light units (“RLU”) in ligand treated cells with RLU in DMSO treated cells. EC50s were calculated from dose response data using a three-parameter logistic model.

[3] = read-out: Z3 assay EC50, HEK-293 Z3 cells, β-galactosidase reporter, average of two wells
[4] = read-out: 13B3 EC50, CHO 13B3 stable cell line, luciferase reporter, 48 h, average of two wells

With `CCc1c(OC)cccc1C(=O)NN(C(=O)c1cc(C)cc(C)c1)C(C)(C)COC` [RG-115006, 2-ethyl-3-methoxy-benzoic acid N′-(3,5-dimethyl-benzoyl)-N′-(2-methoxy-1,1-dimethyl-ethyl)-hydrazide] the EC50 [1] was 275 nM, the fold induction at 3.3 µM [1] was 415 and the fold induction at 33 µM ([1]; HEK293, read-out: Fold Induction, Z3 Assay, 33 uM) was 1070. For the same compound, the “Z3 assay Rel Max FI” value ([1]; HEK-293 Z3 cells) was 1.031, the EC50 [2] was 3500 nM and the “13B3 assay Rel Max FI” value [2] was 0.890. It also gave a fold induction at 3.3 µM [2] of 4180 and a fold induction at 33 µM ([2]; read-out: Fold Induction, 13B3 Assay, 33 uM) of 3150.
In the case of `CCc1c(OC)cccc1C(=O)NN(C(=O)c1cccc(Br)c1)C(C)(C)C` [RG-115038], the “Fold Induction, Z3 Assay, 3.3 uM” value ([1]; average of two wells) is reported as 600, the “Fold Induction, Z3 Assay, 33 uM” value ([1]; average of two wells) is reported as 321 and the “Z3 assay Rel Max FI” value ([1]; HEK-293 Z3 cells) is reported as 1.064. The EC50 [1, 3] was 550 nM, the “Fold Induction, 13B3 Assay, 3.3 uM” value ([2]; average of two wells) was 4119 and the “Fold Induction, 13B3 Assay, 33 uM” value ([2]; average of two wells) was 4970. For the same compound, the “13B3 assay Rel Max FI” value [2] was 1.172 and the EC50 [2, 4] was 1740 nM.
`CCc1c(OC)cccc1C(=O)NN(C(=O)c1cc(C)cc(C)c1)C(C)(C)C#N` [RG-115043] was tested, and the “Fold Induction, Z3 Assay, 3.3 uM” value ([1]; average of two wells) was 466, the “Fold Induction, Z3 Assay, 33 uM” value ([1]; average of two wells) was 1588 and the “Z3 assay Rel Max FI” value ([1]; HEK-293 Z3 cells) was 0.943. For the same compound, the EC50 [1, 3] was 178 nM, the “Fold Induction, 13B3 Assay, 3.3 uM” value ([2]; average of two wells) was 835 and the “Fold Induction, 13B3 Assay, 33 uM” value ([2]; average of two wells) was 547. For the same compound, the “13B3 assay Rel Max FI” value [2] was 0.852 and the EC50 [2, 4] was 2670 nM.
For `CCc1ccc(C(=O)NN(C(=O)c2ccc(OC)nc2OC)C(C)(C)C)c(F)c1` [RG-115050], the “Fold Induction, Z3 Assay, 3.3 uM” value ([1]; average of two wells) was 424, the “Fold Induction, Z3 Assay, 33 uM” value ([1]; average of two wells) was 1446 and the “Z3 assay Rel Max FI” value ([1]; HEK-293 Z3 cells) was 0.808. For the same compound, the EC50 [1, 3] was 282 nM, the “Fold Induction, 13B3 Assay, 3.3 uM” value ([2]; average of two wells) was 2027 and the “Fold Induction, 13B3 Assay, 33 uM” value ([2]; average of two wells) was 894. The “13B3 assay Rel Max FI” value [2] was 0.724 and the EC50 [2, 4] was 762 nM.
`Cc1c(C(=O)NN(C(=O)c2ccccc2[S+](C)[O-])C(C)(C)C)ccc2c1OCCO2` (centres unmarked) [RG-115064] was tested, and the “Fold Induction, Z3 Assay, 3.3 uM” value ([1]; average of two wells) was 1, the “Fold Induction, Z3 Assay, 33 uM” value ([1]; average of two wells) was 3 and the “Z3 assay Rel Max FI” value ([1]; HEK-293 Z3 cells) was 0.031. For the same compound, the EC50 [1, 3] was > 50000 nM, the “Fold Induction, 13B3 Assay, 3.3 uM” value ([2]; average of two wells) was 2 and the “Fold Induction, 13B3 Assay, 33 uM” value ([2]; average of two wells) was 415. For the same compound, the “13B3 assay Rel Max FI” value [2] was 0.000 and the EC50 [2, 4] was > 50000 nM.
`Cc1cc(C)cc(C(=O)N(NC(=O)c2ccc3c(c2F)COCO3)C(C)(C)C)c1` [RG-115068] was tested, and the “Fold Induction, Z3 Assay, 3.3 uM” value ([1]; average of two wells) was 54, the “Fold Induction, Z3 Assay, 33 uM” value ([1]; average of two wells) was 802 and the “Z3 assay Rel Max FI” value ([1]; HEK-293 Z3 cells) was 0.804. For the same compound, the EC50 [1, 3] was 21000 nM, the “Fold Induction, 13B3 Assay, 3.3 uM” value ([2]; average of two wells) was 2828 and the “Fold Induction, 13B3 Assay, 33 uM” value ([2]; average of two wells) was 1500. For the same compound, the “13B3 assay Rel Max FI” value [2] was 0.722 and the EC50 [2, 4] was 926 nM.
With `CCc1ccc(C(=O)NN(C(=O)c2cc(OC)c(C)c(OC)c2)C(C)(C)C)c(F)c1` [RG-115077] the “Fold Induction, Z3 Assay, 3.3 uM” value ([1]; average of two wells) was 294, the “Z3 assay Rel Max FI” value ([1]; HEK-293 Z3 cells) was 0.911 and the EC50 [1, 3] was 389 nM. The “Fold Induction, 13B3 Assay, 3.3 uM” value ([2]; average of two wells) was 932, the “Fold Induction, 13B3 Assay, 33 uM” value ([2]; average of two wells) was 199 and the “13B3 assay Rel Max FI” value [2] was 1.509. It also gave an EC50 [2, 4] of 847 nM.
`CNCc1c(OC)cccc1C(=O)NN(C(=O)c1cc(C)cc(C)c1)C(C)(C)C` [RG-115079, 3,5-dimethyl-benzoic acid N-tert-butyl-N′-(2-methylaminomethyl-3-methoxy-benzoyl)-hydrazide] was tested, and the EC50 [1] was > 50000 nM, the fold induction at 3.3 µM [1] was 1 and the “Z3 assay Rel Max FI” value ([1]; HEK-293 Z3 cells) was 0.02. For the same compound, the EC50 [2] was 20 nM, the “13B3 assay Rel Max FI” value [2] was 0.20 and the fold induction at 3.3 µM [2] was 3.
For `CCc1c(OC)cccc1C(=O)NN(C(=O)c1cc(F)cc(C(F)(F)F)c1)C(C)(C)C` [RG-115088], the “Fold Induction, Z3 Assay, 3.3 uM” value ([1]; average of two wells) was 561, the “Fold Induction, Z3 Assay, 33 uM” value ([1]; average of two wells) was 228 and the “Z3 assay Rel Max FI” value ([1]; HEK-293 Z3 cells) was 0.958. For the same compound, the EC50 [1, 3] was 501 nM, the “Fold Induction, 13B3 Assay, 3.3 uM” value ([2]; average of two wells) was 542 and the “Fold Induction, 13B3 Assay, 33 uM” value ([2]; average of two wells) was 1048. For the same compound, the “13B3 assay Rel Max FI” value [2] was 0.709 and the EC50 [2, 4] was 1830 nM.
For `CCc1c(OC)cccc1C(=O)NN(C(=O)c1cnc(C)cn1)C(C)(C)C` [RG-115091], the “Fold Induction, Z3 Assay, 33 uM” value ([1]; average of two wells) was 61 and the “Fold Induction, 13B3 Assay, 33 uM” value ([2]; average of two wells) was 1.
